Results from ChEMBL document CHEMBL1201862, “PubChem BioAssay data set” (2004).
Active and inactive are the calls of the source.

Experiments:
[1] = IGROV1 cell killing – plate reader, dry powder samples, PAX8 inhibitor project, dose response (AID 743043); assay type: functional, cell-based; settings: IGROV-1
[2] = COV434 cell viability loss – plate reader, dry powder, SA7, cytotoxicity control for PAX8 inhibitor project, dose response (AID 743145); assay type: functional, cell-based
[3] = COV362 cell viability loss – plate reader, dry powder, SA12, cytotoxicity control for PAX8 inhibitor project, dose response (AID 743144); assay type: functional, cell-based
[4] = A2780 cell killing – plate reader, dry powder samples, cytotoxicity control, dose response (AID 743046); assay type: functional, cell-based
[5] = inhibitors acting on PAX2 in cells – cell-based, plate reader, dry powder samples, selectivity assay for PAX8 inhibitor project, dose response (AID 743048); assay type: functional;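 further: HEK293 cells carrying a WT1 promoter luciferase reporter driven by expressed Pax2; potency is for inhibition of Pax2 driven reporter signal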
Nonstructural protein 1 = Nonstructural protein 1 (Influenza A virus, UniProt Q194T2); assay type: functional, Influenza A virus (A/California/07/2009(H1N1))
Sequence of Nonstructural protein 1 (Q194T2 whole entry): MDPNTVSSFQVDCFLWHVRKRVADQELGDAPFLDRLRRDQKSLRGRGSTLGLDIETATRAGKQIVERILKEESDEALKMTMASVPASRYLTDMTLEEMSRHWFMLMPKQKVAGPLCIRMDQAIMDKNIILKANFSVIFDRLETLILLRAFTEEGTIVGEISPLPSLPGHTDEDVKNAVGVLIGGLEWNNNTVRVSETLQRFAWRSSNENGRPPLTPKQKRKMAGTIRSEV

Vero [6] = test: mammalian cell viability reduction – secondary assay, cytotoxicity control for West Nile virus antiviral project, dose response (AID 1650); assay type: functional; settings: Chlorocebus sabaeus
[7] = target: T1, Polyadenylate-binding protein 1 (Homo sapiens, UniProt P11940); test: MLLE binding blockers, Cy5 peptide tracer – biochemical, fluorescence polarization, Cy5-PAM2 peptide, secondary, miRNA deadenylation inhibitor project, dose response (AID 602260); assay type: functional; settings: read-out: IC50_Mean
T1 sequence (P11940 whole entry): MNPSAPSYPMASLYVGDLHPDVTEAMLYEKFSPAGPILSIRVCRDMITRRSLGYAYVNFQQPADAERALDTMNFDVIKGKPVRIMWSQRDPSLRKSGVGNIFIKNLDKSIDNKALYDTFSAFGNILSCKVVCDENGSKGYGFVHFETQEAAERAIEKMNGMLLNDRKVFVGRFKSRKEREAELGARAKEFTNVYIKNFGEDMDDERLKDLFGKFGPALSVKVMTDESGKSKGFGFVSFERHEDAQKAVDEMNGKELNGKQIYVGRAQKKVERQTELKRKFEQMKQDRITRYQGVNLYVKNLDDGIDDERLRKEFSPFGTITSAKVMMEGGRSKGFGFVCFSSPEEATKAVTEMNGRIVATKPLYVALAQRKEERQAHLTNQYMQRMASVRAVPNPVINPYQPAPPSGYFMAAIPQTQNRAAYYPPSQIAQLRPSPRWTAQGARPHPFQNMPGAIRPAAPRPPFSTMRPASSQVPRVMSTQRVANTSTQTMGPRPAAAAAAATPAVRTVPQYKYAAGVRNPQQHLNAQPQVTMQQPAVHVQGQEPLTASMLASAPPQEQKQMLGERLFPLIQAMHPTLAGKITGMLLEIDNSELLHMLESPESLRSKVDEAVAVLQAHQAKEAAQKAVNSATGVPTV

Vero [8] = test: cells; assay type: functional; settings: Chlorocebus sabaeus
[9] = target: T1, Polyadenylate-binding protein 1; test: MLLE domain peptide-binding blockers, IC50 – biochemical, fluorescence polarization, FITC-PAM2 peptide, dose response (AID 602259); assay type: functional; settings: read-out: IC50_Mean
[10] = HEK-293T cell viability reduction – luminescence, B-cell screen hits, cytotoxicity control for BCR NF-kB inhibitor project, dose response (AID 489021); assay type: functional, cell-based;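 further: HEK-293T cells carrying an NF-kB luciferase reporter; cells exposed to compound for about 14 hours before viability readout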
[11] = Luminescence-based dose response cell-based high throughput screening assay for cytotoxic compounds using the IEC-6 intestinal epithelial cell line. [Related pubchem assays: 1858 (Summary AID.), 1825 (Counterscreen.), 1907 (Confirmation screen.)]; assay type: functional
Prothrombin = Prothrombin (Homo sapiens, UniProt P00734); test: Thrombin 1536 HTS Dose Response Confirmation. [Related pubchem assays: 1046 (Thrombin 1536 HTS; hits were confirmed in this assay)]; assay type: functional
cells [12] = test: cells
[13] = NIH3T3 cell viability loss – ATP luminescence, mouse fibroblasts, counter-screen, dose response (AID 2010); assay type: functional, cell-based;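 further: cells exposed to compound for about 90 hours before reading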
[14] = Trypanosoma cruzi growth suppression in host cells – NIH3T3 host cells, beta-gal luminescence, confirmation (AID 2044); assay type: functional, cell-based;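 further: intracellular parasites grown in NIH/3T3 mouse fibroblasts as host cells; luminescent beta-galactosidase reporter signal from transgenic T. cruzi replicating inside host cells; inhibitors lower the luminescence signal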
[15] = M. tuberculosis growth inhibition, HTS (AID 449762); assay type: functional
[16] = tested on: Streptococcus sp. 'group A'; test: Streptococcus pyogenes SK(-)GAS viability under kanamycin – luminescence, BacTiterGlo, confirmation, counter-screen for streptokinase expression inhibitor project, dose response (AID 1900); assay type: functional, organism-based
Streptococcus = test: GAS UMAA2166 growth inhibition – luminescence, BacTiterGlo, counter-screen for streptokinase expression inhibitor project, dose response (AID 1915); assay type: functional, organism-based;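 further: potency for reduction of bacterial viability or growth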
Orexin receptor type 2 [17] = target: T2, Orexin receptor type 2 (Homo sapiens, UniProt O43614); test: Counterscreen assay for antagonists of the orexin 1 receptor (OX1R; HCRTR1): Fluorescence-based cell-based dose response assay for antagonists of the orexin 2 receptor (OX2R; HCRTR2), run by assay provider.; assay type: functional
T2 sequence (O43614 whole entry): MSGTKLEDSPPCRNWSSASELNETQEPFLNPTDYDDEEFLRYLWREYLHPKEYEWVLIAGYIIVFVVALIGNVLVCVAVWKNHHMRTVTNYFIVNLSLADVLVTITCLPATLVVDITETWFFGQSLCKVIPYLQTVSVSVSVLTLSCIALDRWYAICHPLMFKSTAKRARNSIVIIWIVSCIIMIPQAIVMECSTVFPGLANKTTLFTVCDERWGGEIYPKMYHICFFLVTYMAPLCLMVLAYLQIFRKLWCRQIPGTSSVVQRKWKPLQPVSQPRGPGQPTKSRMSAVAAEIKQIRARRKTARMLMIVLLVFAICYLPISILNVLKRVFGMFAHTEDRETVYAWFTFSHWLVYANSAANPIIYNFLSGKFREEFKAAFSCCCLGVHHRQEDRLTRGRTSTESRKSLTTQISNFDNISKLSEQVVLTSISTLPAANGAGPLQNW

Orexin receptor type 2 [18] = target: T2, Orexin receptor type 2; test: Counterscreen assay for antagonists of the orexin 1 receptor (OX1R; HCRTR1): Homogeneous Time Resolved Fluorescence (HTRF)-based cell-based dose response assay for antagonists of the orexin 2 receptor (OX2R; HCRTR2), run by assay provider.; assay type: functional
CHO-K1 = test: (§1) Counterscreen for antagonists of the orexin 1 receptor (OX1R; HCRTR1): Homogeneous time resolved fluorescence (HTRF)-based cell-based dose response assay to identify antagonists of the parental CHO-K1 cell line. [Related pubchem assays (depositor defined):AID434989, AID435008, AID463079, AID485270, AID492963, AID492964, AID492965, AID493232, AID504699, AID504701]; assay type: functional; settings: Cricetulus griseus
[19] = as §1, with “Fluorescence-based” for “Homogeneous time resolved fluorescence (HTRF)-based”, “cell-based high throughput” for “cell-based”, “CHO” for “CHO-K1”; assay type: functional
[20] = target: T3, Orexin/Hypocretin receptor type 1 (Homo sapiens, UniProt O43613); test: (§2) Fluorescence-based cell-based high throughput dose response assay for antagonists of the orexin 1 receptor (OX1R; HCRTR1). [Related pubchem assays (depositor defined):AID434989, AID435008, AID463079, AID485270, AID492963, AID492964, AID492965, AID493232, AID504717, AID504718]; assay type: functional
T3 sequence (O43613 whole entry): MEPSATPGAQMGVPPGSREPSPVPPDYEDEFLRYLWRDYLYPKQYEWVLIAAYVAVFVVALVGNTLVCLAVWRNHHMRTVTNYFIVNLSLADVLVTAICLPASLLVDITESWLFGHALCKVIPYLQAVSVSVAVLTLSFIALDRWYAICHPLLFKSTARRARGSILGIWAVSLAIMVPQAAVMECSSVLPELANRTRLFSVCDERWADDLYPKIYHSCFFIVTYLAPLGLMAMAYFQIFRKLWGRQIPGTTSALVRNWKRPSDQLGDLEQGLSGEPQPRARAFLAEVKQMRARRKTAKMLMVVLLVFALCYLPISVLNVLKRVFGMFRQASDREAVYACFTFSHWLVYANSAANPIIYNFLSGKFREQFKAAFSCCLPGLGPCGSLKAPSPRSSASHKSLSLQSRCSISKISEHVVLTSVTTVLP

[21] = target: T4, Oxysterols receptor LXR-beta (Homo sapiens, UniProt P55055); assay type: functional, cell-based;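 further: Cell-based luminescence dose-response assay of agonist activity at LXR, run as a confirmatory counterscreen to a daf-12 agonist screen; HEK293 cells with Gal4-LXR fusion and GAL4-driven luciferase reporter; agonist potency from rising luciferase signal of a Gal4-LXR reporter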
T4 sequence (P55055 whole entry): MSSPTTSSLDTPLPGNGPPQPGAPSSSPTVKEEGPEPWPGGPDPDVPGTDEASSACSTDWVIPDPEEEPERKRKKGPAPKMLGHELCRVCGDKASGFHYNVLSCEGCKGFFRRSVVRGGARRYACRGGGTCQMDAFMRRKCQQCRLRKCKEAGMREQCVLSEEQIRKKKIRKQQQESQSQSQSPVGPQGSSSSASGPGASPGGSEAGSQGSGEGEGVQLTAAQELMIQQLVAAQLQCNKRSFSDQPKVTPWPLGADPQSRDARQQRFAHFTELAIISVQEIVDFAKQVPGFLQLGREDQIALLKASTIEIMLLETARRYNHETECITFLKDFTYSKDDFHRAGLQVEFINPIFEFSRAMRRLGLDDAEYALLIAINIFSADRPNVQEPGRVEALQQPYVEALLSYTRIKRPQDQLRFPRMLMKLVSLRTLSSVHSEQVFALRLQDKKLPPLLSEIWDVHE

[22] = target: T3, Orexin/Hypocretin receptor type 1; test: as §2, with “Homogeneous Time Resolved Fluorescence (HTRF)-based” for “Fluorescence-based”; assay type: functional
cells [23] = test: cells; remark: listed apart in the source
[24] = HIV-1 Vif–A3G interaction blockers – biochemical, TR-FRET, GST-Vif 1-94, biotin-A3G peptide, dose response retest, primary screen (AID 1117319); assay type: functional;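 further: TR-FRET signal of purified GST-Vif binding a biotinylated A3G peptide; inhibitors lower the FRET signal by blocking Vif and A3G binding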

## N#C[C@H]1[C@@H](c2ccc(C#Cc3cccc(F)c3)cc2)[C@@H](CO)N1C(=O)C1CCCC1
[1]
  AC50: 10.6 µM (active)
[2]
  AC50: > 70 µM (inactive)
[3]
  AC50: > 70 µM (inactive)
[4]
  AC50: 17.6 µM (active)
[5]
  AC50: > 70 µM (inactive)

## CCC(C)C(=O)N1c2ccccc2C(=C2SC(C(=O)OC)=C(C(=O)OC)S2)C(=S)C1(C)C (centres undefined)
Nonstructural protein 1
  IC50: 17.7 µM (active)
Vero [6]
  CC50: > 100 µM (active)
[7]
  IC50: > 66 µM (inactive)
Vero [8]
  CC50: 21.6 µM (active)
[9]
  IC50: > 66 µM (inactive)

## Cc1[nH]c2ccccc2c1/C=N/Nc1nc(Nc2ccc(F)cc2)nc(N2CCOCC2)n1
[10]
  IC50: 51.2 µM (inactive)
[11]
  IC50: 1.09 µM (active)

## CSc1nc(-c2ccccc2)nn1C(=O)c1ccc(C)cc1
Prothrombin
  IC50: 0.028 µM (active)

## O=C(c1cc([N+](=O)[O-])cc([N+](=O)[O-])c1)N1CCCc2ccccc21
Cells [12]
  EC50: 0.203 µM (active)
[13]
  EC50: > 60 µM (not active)
[14]
  EC50: < 0.1 µM (active)

## CCC(=O)n1nc(-c2ccc(Cl)cc2)nc1NCc1ccccc1
Prothrombin
  IC50: 1.75 µM (active)

## Cc1ccc(S(=O)(=O)CN=C(S)c2ccc3ccccc3c2)cc1
[15]
  IC50: > 100 µM (active)
[16]
  EC50: 3.01 µM (active)
Streptococcus
  EC50: > 150 µM (not active)

## Nn1c(-c2cccs2)nc2sc3c(c2c1=O)CCCC3
Orexin receptor type 2 [17]
  IC50: 31.2 µM (inactive)
Orexin receptor type 2 [18]
  IC50: > 50 µM (inactive)
CHO-K1
  IC50: > 66.2 µM (inactive)
[19]
  IC50: > 49.7 µM (inactive)
[20]
  IC50: 18.1 µM (inactive)
[21]
  EC50: > 67.5 µM (inactive)
[22]
  IC50: 2.98 µM (active)
Cells [23]
  EC50: > 67.5 µM (inactive)

## COc1ccc(/C=N/NC2=NC(=O)C(c3ccccc3)S2)c(OC)c1 (centres undefined)
[24]
  IC50: > 100 µM (active)
